Assay results taken from patent publication US4323547A, “Labeled fatty acids and method of making and using same” (priority 1978, dated 1982).

Experiments:
heart muscle = test: Heart muscle uptake and elimination of radiolabelled fatty acids after tail vein injection in mice; format: in vivo, NMRI mice
Protocol: (§1) Animal experiments with mice were carried out using the product resulting from the high pressure liquid chromatographic purification after evaporation of the eluate to dryness in a rotary evaporator and the dissolution of the product in human serum albumin. The solution is filtered and injected in aliquot portions to the tail vein of each animal.
(§2) The following table assembles the results of comparative tests with the compounds of the invention and prior art compounds: […]

[1] = as above; format: in vivo, NMRI mice; details: mouse, in vivo, iv; for tissue uptake at 2 min: NMRI mice, tail vein injection in human serum albumin, read-out: maximum 18F activity in the heart muscle
Protocol: as §1, §2

[2] = comparative tests, table 2, heart
[3] = NMRI mice, tail vein injection in human serum albumin

Compound	Max. Enrichment in % of Injected Dose per Heart (heart muscle; mouse, in vivo)	Elimination Half-time, rapid elimination (heart muscle; mouse, in vivo, iv) [min]	Elimination Half-time, slow elimination (heart muscle; mouse, in vivo, iv) [min]	Time to Max. Enrichment (heart muscle; mouse, in vivo, iv) [min]	Max. Enrichment in % of Injected Dose per Heart (heart muscle; comparative tests, table 2)	Elimination Half-time, slow elimination (heart muscle; [2]) [min]	Time to Max. Enrichment (heart muscle; [2]) [min]	Elimination Half-time, rapid elimination (heart muscle; [2]) [min]	dropoff of heart activity, long-duration component (heart muscle; [3])	dropoff of heart activity, short-duration component (heart muscle; [3])	time within which the activity reaches a maximum in heart muscle (heart muscle; [3])	maximum 18F activity in the heart muscle (heart muscle; NMRI mice, tail vein injection in human serum albumin, 2 min)	tissue uptake at 2 min [1] [%ID/g]	tissue uptake ([1]; general description, read-out: maximum pickup in heart muscle) [%ID/g]
CCCCCCCCCCCCCCCCC([123I])C(=O)O (stereo not shown) [2-^123 I-Stearic acid]	1.411 ± 0.1 % of Injected Dose per Heart	2 ± 0.4	13 ± 2.7	0.5 to 1	–	–	–	–	–	–	–	–	–	–
CCCCCCCCCCCCCCCCC([34Cl])C(=O)O (stereo not shown) [2-^34m Cl-Stearic acid]	2.03 ± 0.1 % of Injected Dose per Heart	0.9 ± 0.2	9 ± 1.8	1	–	–	–	–	–	–	–	–	–	–
CCCCCCCCCCCCCCC[11C](=O)O [1-[^11 C] Palmitic acid]	–	0.4 ± 0.1	–	–	3.87 ± 1.0 % of Injected Dose per Heart	33 ± 6.5	0.25	–	–	–	–	–	–	–
O=C(O)CCCCCCCCCCCCCCCC[34Cl] [17-^34m Cl-Heptadecanoic acid]	–	–	–	–	2.16 ± 0.6 % of Injected Dose per Heart	23 ± 4.7	0.25	0.9 ± 0.2	–	–	–	–	–	–
CCCCCCCCCCCCCCCCC([18F])C(=O)O (stereo not shown) [2-^18 F-Stearic acid]	–	–	–	–	1.34 ± 0.1 % of Injected Dose per Heart	5 ± 1.5	1	0.5 ± 0.1	–	–	–	–	–	–
(9/10)-^18 F-stearic acid [9/10-^18 F-Stearic acid]	–	–	–	–	4.25 ± 0.9 % of Injected Dose per Heart	24 ± 7	0.5	4 ± 1	eighteen to fifty-one	two to six	two	about 40 % gram (heart)	–	–
O=C(O)CCCCCCCCCCCCCCCC[18F] [17-^18 F-Heptadecanoic acid]	–	–	–	–	4.812 ± 0.8 % of Injected Dose per Heart	18 ± 6	0.5	6 ± 1.5	eighteen to fifty-one	two to six	two	–	~40	~40
O=C(O)CCCCCCCCCCCCCCCC[123I] [17-^123 I-Heptadecanoic acid]	3.97 ± 0.4 % of Injected Dose per Heart	2.1 ± 0.4	25 ± 5.0	0.25	–	–	–	–	–	–	–	–	–	–
CCCCCCCCCCCCCCCCC([77Br])C(=O)O (stereo not shown) [2-^77 Br-Stearic acid]	1.47 ± 0.3 % of Injected Dose per Heart	1 ± 0.2	18 ± 3.6	1	–	–	–	–	–	–	–	–	–	–
O=C(O)CCCCCCCCCCCCCCC[123I] [16-^123 I-Palmitic acid]	3.36 ± 0.4 % of Injected Dose per Heart	2.4 ± 0.5	33 ± 6.6	0.5	–	–	–	–	–	–	–	–	–	–
O=C(O)CCCCCCCCCCCCCCCC[77Br] [17-^77 Br-Heptadecanoic acid]	2.210 ± 0.6 % of Injected Dose per Heart	0.6 ± 0.1	36 ± 7.2	0.5	–	–	–	–	–	–	–	–	–	–
O=C(O)CCCCCCCCCCCCCCC[18F] [16-^18 F-Palmitic acid, 16-^18 F hexadecanoic acid]	–	–	–	–	4.35 ± 1.3 % of Injected Dose per Heart	44 ± 11	0.25	3 ± 0.8	eighteen to fifty-one	two to six	two	–	~40	–
